From patent US11932600B2, “Biaryl derivative” (DAIICHI SANKYO COMPANY, LIMITED, priority 2018, dated 2024)

These compounds were tested against T1, human TNAP (Homo sapiens, UniProt P05186) (assay: Inhibitory test of TNAP activity (pNPP substrate, p-nitrophenol production)). Details: human TNAP from culture supernatant of transfected COS1 cells, 60 minutes at room temperature, ABS 405 nm.
T1 construct: host or cells: COS1 cells, concentrated and dialyzed culture supernatant
T1 sequence (P05186 18-502 limits assumed): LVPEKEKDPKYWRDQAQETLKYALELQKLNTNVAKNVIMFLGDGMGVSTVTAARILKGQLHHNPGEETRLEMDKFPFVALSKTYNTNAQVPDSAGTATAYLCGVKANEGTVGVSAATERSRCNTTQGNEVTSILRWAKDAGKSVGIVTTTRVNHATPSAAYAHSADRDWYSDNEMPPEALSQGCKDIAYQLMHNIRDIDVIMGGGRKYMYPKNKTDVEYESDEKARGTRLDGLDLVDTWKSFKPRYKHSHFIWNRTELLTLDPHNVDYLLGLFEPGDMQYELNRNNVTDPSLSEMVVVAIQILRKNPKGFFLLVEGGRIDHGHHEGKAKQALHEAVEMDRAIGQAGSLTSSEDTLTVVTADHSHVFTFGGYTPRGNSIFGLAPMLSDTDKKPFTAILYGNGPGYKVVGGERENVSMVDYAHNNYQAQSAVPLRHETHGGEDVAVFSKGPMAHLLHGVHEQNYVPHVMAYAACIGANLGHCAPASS
Assay type: biochemical
Description: <Test Examples> (Test Example 1) Inhibitory Test of TNAP Activity
COS1 cells (DS Pharma Biomedical Co., Ltd.) were transfected with human TNAP (OriGene Technologies, Inc.) using Lipofectamine LTX & Plus reagent (Invitrogen Corp.). On the next day, the medium was replaced with a fresh medium, and the cells were cultured in an incubator for 3 days. After 3 days, the culture supernatant was collected and concentrated by centrifugation at 5000 G for 30 minutes using Amicon 14, 10^4 cut (Merck Millipore). The concentrated culture supernatant was dialyzed against 5 L of 50 mM Tris/200 mM NaCl/1 mM MgCl2/20 μM ZnCl2 twice and used as an enzyme source (enzyme solution). The substrate pNPP (ProteoChem Inc.) was adjusted to 3.1 mM with Milli-Q water, and a solution of each test compound dissolved in dimethyl sulfoxide (DMSO; Wako Pure Chemical Industries, Ltd.) by 6 serial dilutions at a 5-fold common ratio from 100 μM or DMSO was added thereto at a final concentration of 1% by volume. The enzyme solution adjusted to 2 μg/mL with an assay buffer (200 mM Tris/2 mM MgCl2/0.04 mM ZnCl2/0.01% Tween 20) was added in the same amount of the substrate solution and incubated at room temperature for 60 minutes. Then, the absorbance (ABS: 405 nm) was measured using a microplate reader (model plus 384, Molecular Devices, LLC), and the concentration of produced p-nitrophenol was calculated.

Row | Compound | IC50
1 | O=C(O)COc1ccc(-c2cc(Cl)cc(F)c2NS(=O)(=O)c2cccnc2)cc1 [Example 16, ({5′-Chloro-3′-fluoro-2′-[(pyridine-3-sulfonyl)amino][1,1′-biphenyl]-4-yl}oxy)acetic acid] | 2.4 nM
2 | Cc1cncc(S(=O)(=O)Nc2c(F)cc(Cl)cc2-c2ccc(OC(C)(C)C(=O)O)c(F)c2)c1 [Example 27, 2-({5′-Chloro-3,3′-difluoro-2′-[(5-methylpyridine-3-sulfonyl)amino][1,1′-biphenyl]-4-yl}oxy)-2-methylpropanoic acid] | 0.68 nM
3 | CC(Oc1ccc(-c2cc(Cl)cc(Cl)c2NS(=O)(=O)c2cccnc2)cc1)C(=O)O (stereo not drawn) [Example 13, 2-({3′,5′-Dichloro-2′-[(pyridine-3-sulfonyl)amino][1,1′-biphenyl]-4-yl}oxy)propanoic acid] | 3.5 nM
4 | O=C(O)COc1ccc(-c2cc(Cl)cc(Cl)c2NS(=O)(=O)c2cccnc2)cc1 [Example 1, ({3′,5′-Dichloro-2′-[(pyridine-3-sulfonyl)amino][1,1′-biphenyl]-4-yl}oxy)acetic acid] | 5.5 nM
5 | Cc1cncc(S(=O)(=O)Nc2c(Cl)cc(Cl)cc2-c2ccc(OCC(=O)O)cc2)c1 [Example 15, ({3′,5′-Dichloro-2′-[(5-methylpyridine-3-sulfonyl)amino][1,1′-biphenyl]-4-yl}oxy)acetic acid] | 0.9 nM
6 | Cc1ncncc1S(=O)(=O)Nc1c(F)cc(Cl)cc1-c1ccc(OC(C)(C)C(=O)O)cc1 [Example 23, 2-({5′-Chloro-3′-fluoro-2′-[(4-methylpyrimidine-5-sulfonyl)amino][1,1′-biphenyl]-4-yl}oxy)-2-methylpropanoic acid] | 2.4 nM
7 | CC(C)(Oc1ccc(-c2cc(Cl)cc(F)c2NS(=O)(=O)c2cncc(S(C)(=O)=O)c2)cc1)C(=O)O [Example 28, 2-[(5′-Chloro-3′-fluoro-2′-{[5-(methanesulfonyl)pyridine-3-sulfonyl]amino}[1,1′-biphenyl]-4-yl)oxy]-2-methylpropanoic acid] | 2.6 nM
8 | COc1cncc(S(=O)(=O)Nc2c(Cl)cc(Cl)cc2-c2ccc(S(C)(=O)=O)c(F)c2)c1 [Example 21, N-[3,5-Dichloro-3′-fluoro-4′-(methanesulfonyl)[1,1′-biphenyl]-2-yl]-5-methoxypyridine-3-sulfonamide] | 1.2 nM
9 | CC(C)(Oc1ccc(-c2cc(Cl)cc(Cl)c2NS(=O)(=O)c2cccnc2)cc1)C(=O)O [Example 14, 2-({3′,5′-Dichloro-2′-[(pyridine-3-sulfonyl)amino][1,1′-biphenyl]-4-yl}oxy)-2-methylpropanoic acid] | 2.6 nM

Continued, values first:

Row | IC50 | Compound
10 | 0.5 nM | Cc1cncc(S(=O)(=O)Nc2c(Cl)cc(Cl)cc2-c2ccc(OC(C)(C)C(=O)O)cc2)c1 [Example 2, 2-({3′,5′-Dichloro-2′-[(5-methylpyridine-3-sulfonyl)amino][1,1′-biphenyl]-4-yl}oxy)-2-methylpropanoic acid]
11 | 0.49 nM | COc1cncc(S(=O)(=O)Nc2c(Cl)cc(Cl)cc2-c2ccc(OC(C)C(=O)O)cc2)c1 (stereo not drawn) [Example 19, 2-({3′,5′-Dichloro-2′-[(5-methoxypyridine-3-sulfonyl)amino][1,1′-biphenyl]-4-yl}oxy)propanoic acid]
12 | 0.41 nM | COc1ccncc1S(=O)(=O)Nc1c(F)cc(Cl)cc1-c1ccc(OC(C)(C)C(=O)O)cc1 [Example 25, 2-({5′-Chloro-3′-fluoro-2′-[(4-methoxypyridine-3-sulfonyl)amino][1,1′-biphenyl]-4-yl}oxy)-2-methylpropanoic acid]
13 | 0.36 nM | COc1cncc(S(=O)(=O)Nc2c(Cl)cc(Cl)cc2-c2ccc(C(F)(F)C(=O)O)cc2)c1 [Example 20, {3′,5′-Dichloro-2′-[(5-methoxypyridine-3-sulfonyl)amino][1,1′-biphenyl]-4-yl}(difluoro)acetic acid]
14 | 0.3 nM | Cc1cncc(S(=O)(=O)Nc2c(F)cc(Cl)cc2-c2ccc(OCC(=O)O)cc2)c1 [Example 17, ({5′-Chloro-3′-fluoro-2′-[(5-methylpyridine-3-sulfonyl)amino][1,1′-biphenyl]-4-yl}oxy)acetic acid]
15 | 0.28 nM | COc1cncc(S(=O)(=O)Nc2c(Cl)cc(Cl)cc2-c2ccc(CC(=O)O)cc2)c1 [Example 22, {3′,5′-Dichloro-2′-[(5-methoxypyridine-3-sulfonyl)amino][1,1′-biphenyl]-4-yl}acetic acid]
16 | 0.24 nM | Cc1cncc(S(=O)(=O)Nc2c(F)cc(Cl)cc2-c2ccc(OC(C)(C)C(=O)O)cc2)c1 [Example 3, 2-({5′-Chloro-3′-fluoro-2′-[(5-methylpyridine-3-sulfonyl)amino][1,1′-biphenyl]-4-yl}oxy)-2-methylpropanoic acid]
17 | 0.23 nM | COc1cncc(S(=O)(=O)Nc2c(F)cc(Cl)cc2-c2ccc(OC(C)(C)C(=O)O)cc2)c1 [Example 18, 2-({5′-Chloro-3′-fluoro-2′-[(5-methoxypyridine-3-sulfonyl)amino][1,1′-biphenyl]-4-yl}oxy)-2-methylpropanoic acid]
18 | 0.2 nM | CCc1ccncc1S(=O)(=O)Nc1c(F)cc(Cl)cc1-c1ccc(OC(C)(C)C(=O)O)cc1 [Example 24, 2-({5′-Chloro-2′-[(4-ethylpyridine-3-sulfonyl)amino]-3′-fluoro[1,1′-biphenyl]-4-yl}oxy)-2-methylpropanoic acid]
19 | 0.19 nM | CC(C)Oc1cncc(S(=O)(=O)Nc2c(F)cc(Cl)cc2-c2ccc(OC(C)(C)C(=O)O)cc2)c1 [Example 26, 2-{[5′-Chloro-3′-fluoro-2′-({5-[(propan-2-yl)oxy]pyridine-3-sulfonyl}amino)[1,1′-biphenyl]-4-yl]oxy}-2-methylpropanoic acid]
20 | 0.17 nM | Cc1cncc(S(=O)(=O)Nc2c(F)cc(Cl)cc2-c2ccc(C(C)C(=O)O)cc2)c1 (racemic) [Example 32, 2-{5′-Chloro-3′-fluoro-2′-[(5-methylpyridine-3-sulfonyl)amino][1,1′-biphenyl]-4-yl}propanoic acid]
21 | 0.15 nM | Cc1cncc(S(=O)(=O)Nc2c(F)cc(Cl)cc2-c2ccc(OC(C)(C)C(=O)O)cc2)c1C [Example 8, 2-({5′-Chloro-2′-[(4,5-dimethylpyridine-3-sulfonyl)amino]-3′-fluoro[1,1′-biphenyl]-4-yl}oxy)-2-methylpropanoic acid]
22 | 0.14 nM | CCC(C(=O)O)c1ccc(-c2cc(Cl)cc(F)c2NS(=O)(=O)c2cncc(C)c2)cc1 (stereo not drawn) [Example 33, 2-{5′-Chloro-3′-fluoro-2′-[(5-methylpyridine-3-sulfonyl)amino][1,1′-biphenyl]-4-yl}butanoic acid]
23 | 0.1 nM | Cc1cncc(S(=O)(=O)Nc2c(F)cc(Cl)cc2-c2ccc(CC(=O)O)cc2)c1C [Example 12, {5′-Chloro-2′-[(4,5-dimethylpyridine-3-sulfonyl)amino]-3′-fluoro[1,1′-biphenyl]-4-yl}acetic acid]

What follows are compounds tested on plasma ALP (80-90% containing TNAP) (assay: Inhibitory test of plasma TNAP activity in B6 mouse). Details: 0.3 mg/kg orally in 0.5% methylcellulose, average inhibition from 0 hour to 6 hours after administration, activity before administration = 100%.
Assay type: in vivo
Description: (Test Example 3) Inhibitory Test of Plasma TNAP Activity in B6 Mouse (Charles River Laboratories Japan, Inc.)
After blood sampling from the tail vein using a heparin-treated hematocrit capillary tube (EM Meister Hematocrit Capillary Tube, AS ONE Corp.) (as the sample before compound administration), each test compound suspended in a 0.5% methylcellulose solution (powder purchased from Wako Pure Chemical Industries, Ltd. was adjusted to 0.5% with Otsuka distilled water) was administered orally to the mouse (0.3 mg/kg). 1, 2, 4, 6, and 24 hours after the administration, blood was collected from the tail vein using a heparin-treated hematocrit capillary tube to obtain a plasma sample. The plasma sample was added to an assay buffer (1 M Tris, 1 M MgCl2, 20 mM ZnCl2, and water, pH 7.5), and the mixture was left standing for 5 minutes. Then, the absorbance at 405 nm was measured and used as a blank. The substrate pNPP was added to the plasma sample and incubated at room temperature for 180 minutes. Then, the absorbance (ABS: 405 nm) was measured using a microplate reader (model plus 384, Molecular Devices, LLC), and the concentration of produced p-nitrophenol was calculated. The blank was subtracted from all measurement values to calculate TNAP activity at each time point with the TNAP activity of the sample before compound administration defined as 100%.
It was calculated according to the following expression: 100−((plasma ALP activity at 0 hr+plasma ALP activity at 1 hr)*1/2+(plasma ALP activity at 1 hr+plasma ALP activity at 2 hr)*1/2+(plasma ALP activity at 2 hr+plasma ALP activity at 4 hr)*2/2+(plasma ALP activity at 4 hr+plasma ALP activity at 6 hr)*2/2)/6.

Row | Compound | Plasma ALP Inhibition (6 h ave. inhibition %)
24 | Cc1cncc(S(=O)(=O)Nc2c(F)cc(Cl)cc2-c2ccc(OC(C)(C)C(=O)O)cc2)c1 [Example 3, 2-({5′-Chloro-3′-fluoro-2′-[(5-methylpyridine-3-sulfonyl)amino][1,1′-biphenyl]-4-yl}oxy)-2-methylpropanoic acid] | 70.5%
25 | Cc1cncc(S(=O)(=O)Nc2c(F)cc(Cl)cc2-c2ccc(CC(=O)O)cc2)c1C [Example 12, {5′-Chloro-2′-[(4,5-dimethylpyridine-3-sulfonyl)amino]-3′-fluoro[1,1′-biphenyl]-4-yl}acetic acid] | 82.2%
26 | Cc1cncc(S(=O)(=O)Nc2c(F)cc(Cl)cc2-c2ccc(OC(C)(C)C(=O)O)cc2)c1C [Example 8, 2-({5′-Chloro-2′-[(4,5-dimethylpyridine-3-sulfonyl)amino]-3′-fluoro[1,1′-biphenyl]-4-yl}oxy)-2-methylpropanoic acid] | 76.2%
27 | Cc1cncc(S(=O)(=O)Nc2c(F)cc(Cl)cc2-c2ccc(CCC(=O)O)cc2)c1 [Example 4, 3-{5′-Chloro-3′-fluoro-2′-[(5-methylpyridine-3-sulfonyl)amino][1,1′-biphenyl]-4-yl}propanoic acid] | 80.2%
